From PubChem BioAssay (NCI)
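Five compound concentrations were applied to cells in 96-well plates for 48 hours; endpoints were derived by simple linear interpolation of the resulting dose-response curve. GI50 = concentration required for 50% inhibition of growth. The concentration for full growth arrest is given as TGI.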

Tests used:
Experiment in all cases: DTP human tumour cell line panel, 48 h
NCI-H522 lung = system: NCI-H522 lung
BT-549 breast = system: BT-549 breast
OVCAR-5 ovarian = system: OVCAR-5 ovarian
KM12 colon = system: KM12 colon
SK-MEL-5 melanoma = system: SK-MEL-5 melanoma
MDA-MB-231 breast = system: MDA-MB-231 breast
M14 melanoma = system: M14 melanoma
SR leukemia = system: SR leukemia
HOP-92 NSCLC = system: HOP-92 NSCLC
CAKI-1 renal = system: CAKI-1 renal
HCT-116 colon = system: HCT-116 colon
SK-OV-3 ovarian = system: SK-OV-3 ovarian
HS 578T breast = system: HS 578T breast
HCT-15 colon = system: HCT-15 colon
SF-268 CNS = system: SF-268 CNS
LOX IMVI melanoma = system: LOX IMVI melanoma
SK-MEL-2 melanoma = system: SK-MEL-2 melanoma
RXF 393 renal = system: RXF 393 renal
IGROV1 ovarian = system: IGROV1 ovarian
UO-31 renal = system: UO-31 renal
RPMI-8226 leukemia = system: RPMI-8226 leukemia
PC-3 prostate = system: PC-3 prostate
T-47D breast = system: T-47D breast
CCRF-CEM leukemia = system: CCRF-CEM leukemia
HL-60(TB) leukemia = system: HL-60(TB) leukemia
OVCAR-8 ovarian = system: OVCAR-8 ovarian
SN12C renal = system: SN12C renal

Cc1ccc(S(=O)(=O)c2nc(-c3ccc(F)cc3)oc2S(C)(=O)=O)cc1
GI50 (NCI-H522 lung): 2.27 µM | GI50 (BT-549 breast): 14.1 µM | TGI (BT-549 breast): > 100 µM | GI50 (OVCAR-5 ovarian): > 100 µM | TGI (OVCAR-5 ovarian): > 100 µM | GI50 (KM12 colon): > 100 µM | TGI (KM12 colon): > 100 µM | GI50 (SK-MEL-5 melanoma): > 100 µM | TGI (SK-MEL-5 melanoma): > 100 µM | GI50 (MDA-MB-231 breast): > 100 µM | TGI (MDA-MB-231 breast): > 100 µM | GI50 (M14 melanoma): > 100 µM | TGI (M14 melanoma): > 100 µM | GI50 (SR leukemia): 1.06 µM | GI50 (HOP-92 NSCLC): 6.69 µM | TGI (HOP-92 NSCLC): > 100 µM | GI50 (CAKI-1 renal): 4.83 µM | TGI (CAKI-1 renal): > 100 µM | GI50 (HCT-116 colon): 1.53 µM | TGI (HCT-116 colon): 2.94 µM | GI50 (SK-OV-3 ovarian): > 93.5 µM | TGI (SK-OV-3 ovarian): > 100 µM | TGI (HS 578T breast): > 52.9 µM | GI50 (HCT-15 colon): 3.95 µM | TGI (HCT-15 colon): > 100 µM | GI50 (SF-268 CNS): > 35 µM | TGI (SF-268 CNS): > 100 µM | GI50 (LOX IMVI melanoma): 2.04 µM | GI50 (SK-MEL-2 melanoma): > 21 µM | TGI (SK-MEL-2 melanoma): > 100 µM | GI50 (RXF 393 renal): 5.16 µM | TGI (RXF 393 renal): > 100 µM | GI50 (IGROV1 ovarian): > 100 µM | TGI (IGROV1 ovarian): > 100 µM | GI50 (UO-31 renal): > 100 µM | TGI (UO-31 renal): > 100 µM | GI50 (RPMI-8226 leukemia): > 100 µM | TGI (RPMI-8226 leukemia): > 100 µM | GI50 (PC-3 prostate): > 21.9 µM | TGI (PC-3 prostate): > 100 µM | GI50 (T-47D breast): 1.73 µM | TGI (T-47D breast): 3.67 µM | GI50 (CCRF-CEM leukemia): 2.92 µM | TGI (CCRF-CEM leukemia): > 100 µM | GI50 (HL-60(TB) leukemia): 1.65 µM | TGI (HL-60(TB) leukemia): 5.57 µM | GI50 (OVCAR-8 ovarian): 6.88 µM | TGI (OVCAR-8 ovarian): > 100 µM | GI50 (SN12C renal): 8.51 µM | TGI (SN12C renal): > 100 µM
